Laboratory results reported in patent US7456167B2, “Cyclopropyl fused indolobenzazepine HCV NS5B inhibitors” (Bristol-Myers Squibb Company, priority 2006, dated 2008).
Like-named read-outs stand apart in the source and are kept apart here.

What was measured:
HCV replicon cells = assay: HCV replicon FRET assay; format: cell-based; settings: Hepatitis C virus
From the text: FRET Assay Preparation. To perform the HCV FRET screening assay, 96-well cell culture plates were used. The FRET peptide (Anaspec, Inc.) (Taliani et al., Anal. Biochem. 1996, 240, 60-67) contains a fluorescence donor, EDANS, near one end of the peptide and an acceptor, DABCYL, near the other end. The fluorescence of the peptide is quenched by […] resonance energy transfer (RET) between the donor and the acceptor, but as the NS3 protease cleaves the peptide the products are released from RET quenching and the fluorescence of the donor becomes apparent. The assay reagent was made as follows: 5× cell Luciferase cell culture lysis reagent from Promega (#E153A) diluted to 1× with dH2O, NaCl added to 150 mM final, the FRET peptide diluted to 20 uM final from a 2 mM stock.
To prepare plates, HCV replicon cells, with or without a Renilla luciferase reporter gene, were trypsinized and placed into each well of a 96-well plate with titrated test compounds added in columns 3 through 12; columns 1 and 2 contained a control compound (HCV protease inhibitor), and the bottom row contained cells without compound. The plates were then placed in a CO2 incubator at 37° C.
Assays. Subsequent to addition of the test compounds described above (FRET Assay Preparation), at various times the plate was removed and Alamar blue solution (Trek Diagnostics, #00-100) was added per well as a measure of cellular toxicity. After reading in a Cytoflour 4000 instrument (PE Biosystems), plates were rinsed with PBS and then used for FRET assay by the addition of 30 ul of the FRET peptide assay reagent described above (FRET Assay Preparation) per well. The plate was then placed into the Cytoflour 4000 instrument which had been set to 340 excite/490 emission, automatic mode for 20 cycles and the plate read in a kinetic mode. Typically, the signal to noise using an endpoint analysis after the reads was at least three-fold. Alternatively, after Alamar blue reading, plates were rinsed with PBS, 50 ul of DMEM (high glucose) without phenol red was added and plates were then used for luciferase assay using the Promega Dual-Glo Luciferase Assay System.
Compound analysis was determined by quantification of the relative HCV replicon inhibition and the relative cytotoxicity values. To calculate cytoxicity values, the average Alamar Blue fluorescence signals from the control wells were set as 100% non-toxic. The individual signals in each of the compound test wells were then divided by the average control signal and multiplied by 100% to determine […]. To calculate the HCV replicon inhibition values, an average background value was obtained from the two wells containing the highest amount of HCV protease inhibitor at the end of the assay period. These numbers were similar to those obtained from naïve Huh-7 cells.
The background numbers were then subtracted from the average signal obtained from the control wells and this number was used as 100% activity. The individual signals in each of the compound test wells were then divided by the averaged control values after background subtraction and multiplied by 100% to determine percent activity. EC50 values for a protease inhibitor titration were calculated as the concentration which caused a 50% reduction in FRET or luciferase activity. The two numbers generated for the compound plate, percent cytoxicity and percent activity were used to determine compounds of interest for further analysis.

[1] = biological target: T1, HCV NS5B RdRp genotype 1b (Hepatitis C virus genotype 1b, UniProt Q9WMX2); assay: Modified HCV NS5B RdRp enzyme assay (preincubation protocol); format: biochemical
T1 construct: The protein was expressed with an 18 amino acid C-terminal truncation to enhance the solubility; made in house; host or cells: E. coli BL21(DE3)
Method: HCV NS5B RdRp cloning, expression, and purification. The cDNA encoding the NS5B protein of HCV, genotype 1b, was cloned into the pET21a expression vector. The protein was expressed with an 18 amino acid C-terminal truncation to enhance the solubility. The E. coli competent cell line BL21(DE3) was used for expression of the protein. Cultures were grown at 37° C. for ˜4 hours until the cultures reached an optical density of 2.0 at 600 nm. The cultures were cooled to 20° C. and induced with 1 mM IPTG. Fresh ampicillin was added to a final concentration of 50 μg/ml and the cells were grown overnight at 20° C.
Cell pellets (3 L) were lysed for purification to yield 15-24 mgs of purified NS5B. The lysis buffer consisted of 20 mM Tris-HCl, pH 7.4, 500 mM NaCl, 0.5% triton X-100, 1 mM DTT, 1 mM EDTA, 20% glycerol, 0.5 mg/ml lysozyme, 10 mM MgCl2, 15 ug/ml deoxyribonuclease I, and Complete TM protease inhibitor tablets (Roche). After addition of the lysis buffer, frozen cell pellets were resuspended using a tissue homogenizer. To reduce the viscosity of the sample, aliquots of the lysate were sonicated on ice using a microtip attached to a Branson sonicator. The sonicated lysate was centrifuged at 100,000×g for 1 hr at 4° C. and filtered through a 0.2 μm filter unit (Corning).
The protein was purified using three sequential chromatography steps: Heparin sepharose CL-6B, polyU sepharose 4B, and Hitrap SP sepharose (Pharmacia). The chromatography buffers were identical to the lysis buffer but contained no lysozyme, deoxyribonuclease I, MgCl2 or protease inhibitor and the NaCl concentration of the buffer was adjusted according to the requirements for charging the protein onto the column. Each column was eluted with a NaCl gradient which varied in length from 5-50 column volumes depending on the column type. After the final chromatography step, the resulting purity of the enzyme is >90% based on SDS-PAGE analysis. The enzyme was aliquoted and stored at −80° C.
Standard HCV NS5B RdRp enzyme assay. HCV RdRp genotype 1b assays were run in a final volume of 60 μl in 96 well plates (Costar 3912). The assay buffer is composed of 20 mM Hepes, pH 7.5, 2.5 mM KCl, 2.5 mM MgCl2, 1 mM DTT, 1.6 U RNAse inhibitor (Promega N2515), 0.1 mg/ml BSA (Promega R3961), and 2% glycerol. All compounds were serially diluted (3-fold) in DMSO and diluted further in water such that the final concentration of DMSO in the assay was 2%. HCV RdRp genotype 1b enzyme was used at a final concentration of 28 nM. A polyA template was used at 6 nM, and a biotinylated oligo-dT12 primer was used at 180 nM final concentration. Template was obtained commercially (Amersham 27-4110). Biotinylated primer was prepared by Sigma Genosys. 3H-UTP was used at 0.6 μCi (0.29 μM total UTP). Reactions were initiated by the addition of enzyme, incubated at 30° C. for 60 min, and stopped by adding 25 μl of 50 mM EDTA containing SPA beads (4 μg/μl, Amersham RPNQ 0007). Plates were read on a Packard Top Count NXT after >1 hr incubation at room temperature.
Modified HCV NS5B RdRp enzyme assay. A modified enzyme assay was performed essentially as described for the standard enzyme assay except for the following: The biotinylated oligo dT12 primer was precaptured on streptavidin-coated SPA beads by mixing primer and beads in assay buffer and incubating at room temperature for one hour. Unbound primer was removed after centrifugation. The primer-bound beads were resuspended in 20 mM Hepes buffer, pH 7.5 and used in the assay at final concentrations of 20 nM primer and 0.67 μg/μl beads. Order of addition in the assay: enzyme (14 nM) was added to diluted compound followed by the addition of a mixture of template (0.2 nM), 3H-UTP (0.6 μCi, 0.29 μM), and primer-bound beads, to initiate the reaction; concentrations given are final. Reactions were allowed to proceed for 4 hours at 30° C.
IC50 values for compounds were determined using seven different [I]. […]

[2] = HCV replicon cells, FRET assay, read-out: EC50
[3] = HCV NS5B RdRp genotype 1b, preincubation protocol, read-out: IC50

T1 sequence (Q9WMX2 2420-2992): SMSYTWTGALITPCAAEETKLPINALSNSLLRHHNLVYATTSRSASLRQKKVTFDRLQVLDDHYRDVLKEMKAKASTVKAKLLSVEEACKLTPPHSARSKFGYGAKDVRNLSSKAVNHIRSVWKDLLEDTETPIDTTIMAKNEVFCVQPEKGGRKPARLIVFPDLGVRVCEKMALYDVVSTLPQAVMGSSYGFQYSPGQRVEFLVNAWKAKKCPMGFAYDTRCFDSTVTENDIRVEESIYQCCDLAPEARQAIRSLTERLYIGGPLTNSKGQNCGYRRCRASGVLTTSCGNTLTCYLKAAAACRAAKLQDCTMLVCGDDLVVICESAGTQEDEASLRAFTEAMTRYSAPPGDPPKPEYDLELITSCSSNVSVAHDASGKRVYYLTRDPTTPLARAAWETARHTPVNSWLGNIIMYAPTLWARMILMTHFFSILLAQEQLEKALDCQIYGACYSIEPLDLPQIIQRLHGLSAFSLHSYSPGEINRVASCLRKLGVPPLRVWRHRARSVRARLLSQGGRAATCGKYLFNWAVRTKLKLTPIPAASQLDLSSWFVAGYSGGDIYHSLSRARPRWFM

SMILES	EC50 (HCV replicon cells; [2])	IC50 [1, 3]	EC50 (HCV replicon cells)	IC50 [1]
COc1ccc2c(c1)C1CC1(S(=O)(=O)N1CC[C@@H](N(C)C)C1)Cn1c-2c(C2CCCCC2)c2ccc(C(=O)NS(=O)(=O)N(C)C)cc21 (stereo partly shown)	20 to 1000 nM	20 to 1000 nM		
COc1ccc2c(c1)C1CC1(S(=O)(=O)N1CCCN(C)CC1)Cn1c-2c(C2CCCCC2)c2ccc(C(=O)O)cc21 (stereo not shown)	20 to 1000 nM	20 to 1000 nM		
COc1ccc2c(c1)C1CC1(S(=O)(=O)N1C[C@@H](C)O[C@@H](C)C1)Cn1c-2c(C2CCCCC2)c2ccc(C(=O)NS(=O)(=O)N(C)C)cc21 (stereo partly shown)	20 to 1000 nM	20 to 1000 nM		
COc1ccc2c(c1)C1CC1(S(=O)(=O)N1C3CCC1CC(C)(O)C3)Cn1c-2c(C2CCCCC2)c2ccc(C(=O)NS(=O)(=O)N3CCOCC3)cc21 (stereo not shown)			20 to 1000 nM	20 to 1000 nM
COc1ccc2c(c1)C1CC1(S(=O)(=O)N1CC[C@@H](N(C)C)C1)Cn1c-2c(C2CCCCC2)c2ccc(C(=O)NS(=O)(=O)N3CCOCC3)cc21 (stereo partly shown)	20 to 1000 nM	20 to 1000 nM		
CCN1CC2CC1CN2S(=O)(=O)C12CC1c1cc(OC)ccc1-c1c(C3CCCCC3)c3ccc(C(=O)NS(=O)(=O)N(C)C)cc3n1C2 (stereo not shown)	20 to 1000 nM	20 to 1000 nM		
COc1ccc2c(c1)C1CC1(S(=O)(=O)N1C[C@@H](C)O[C@@H](C)C1)Cn1c-2c(C2CCCCC2)c2ccc(C(=O)O)cc21 (stereo partly shown)	20 to 1000 nM	20 to 1000 nM		
COc1ccc2c(c1)C1CC1(S(=O)(=O)N1C[C@@H](C)N(C)[C@@H](C)C1)Cn1c-2c(C2CCCCC2)c2ccc(C(=O)O)cc21 (stereo partly shown)	20 to 1000 nM	20 to 1000 nM		
COc1ccc2c(c1)C1CC1(S(=O)(=O)N1CCCN(C)CC1)Cn1c-2c(C2CCCCC2)c2ccc(C(=O)NS(=O)(=O)N(C)C)cc21 (stereo not shown)	20 to 1000 nM	20 to 1000 nM		
COC[C@@H]1CN(S(=O)(=O)C23CC2c2cc(OC)ccc2-c2c(C4CCCCC4)c4ccc(C(=O)NS(=O)(=O)N5CCOCC5)cc4n2C3)CCO1 (stereo partly shown)	20 to 1000 nM	20 to 1000 nM		
COc1ccc2c(c1)CC(S(=O)(=O)CCN(C)C)Cn1c-2c(C2CCCCC2)c2ccc(C(=O)NS(=O)(=O)N(C)C)cc21 (stereo not shown)	20 to 1000 nM	20 to 1000 nM		
COc1ccc2c(c1)C1CC1(S(=O)(=O)N1CCC1)Cn1c-2c(C2CCCCC2)c2ccc(C(=O)NS(=O)(=O)N3CCOCC3)cc21 (stereo not shown)	20 to 1000 nM	20 to 1000 nM		
CN(C)S(=O)(=O)NC(=O)c1ccc2c(C3CCCCC3)c3n(c2c1)CC(S(=O)(=O)N1CCOCC1)=Cc1ccccc1-3	20 to 1000 nM	20 to 1000 nM		
COc1ccc2c(c1)CC(S(=O)(=O)CCN1CCOCC1)Cn1c-2c(C2CCCCC2)c2ccc(C(=O)NS(=O)(=O)N(C)C)cc21 (stereo not shown)	20 to 1000 nM	20 to 1000 nM		
